From patent publication US5607926A, “Cephalosporin antibiotics” (Microcide Pharmaceuticals, Inc., priority 1995, dated 1997)
Values after ≈ are worked out from the molar mass of the structure shown. Where two headings read alike, the source gives them in different places.

Assays:
[1] = test system: S. aureus ATCC 29213; assay: In vitro antibacterial evaluation, MIC by agar dilution, S. aureus ATCC 29213; assay type: cell-based; details: Staphylococcus aureus, ATCC29213
How it was run: (§1)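 NCCLS agar dilution; Mueller-Hinton agar, 2-fold series 128 to ≤0.25 μg/mL, duplicates. Inoculum ~10^4 cfu/spot from 4-6 h log-phase broth culture. 35°-36° C, 16-20 h; MIC = lowest concentration with no growth.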

[2] = test system: S. aureus ATCC 25923; assay: In vitro antibacterial evaluation, MIC by agar dilution, S. aureus ATCC 25923; assay type: cell-based
How it was run: as §1

[3] = test system: S. epidermidis ATCC 31432; assay: In vitro antibacterial evaluation, MIC by agar dilution, S. epidermidis ATCC 31432; assay type: cell-based
How it was run: as §1

[4] = test system: S. aureus Col8A (Meth^S)(lac^-); assay: In vitro antibacterial evaluation, MIC by agar dilution, S. aureus Col8A; assay type: cell-based
How it was run: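 Log-phase isolates were spot-inoculated at about 10^4 cfu onto Mueller-Hinton agar carrying duplicate two-fold compound levels, 128 μg/mL to ≤0.25 μg/mL, following NCCLS (1991). Plates were read after 16-20 h at 35°-36° C. The lowest growth-inhibiting concentration gave the MIC (μg/ml).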

[5] = test system: S. haemolyticus (Meth^R); assay: In vitro antibacterial evaluation, MIC by agar dilution, S. haemolyticus; assay type: cell-based
How it was run: as §1

[6] = test system: E. faecium ATCC 35667; assay: In vitro antibacterial evaluation, MIC by agar dilution, E. faecium ATCC 35667; assay type: cell-based
How it was run: as §1

[7] = test system: E. faecalis ATCC 29212; assay: In vitro antibacterial evaluation, MIC by agar dilution, E. faecalis ATCC 29212; assay type: cell-based; details: E. faecalis ATCC 29212
How it was run: as §1

[8] = test system: E. coli ATCC 25922; assay: In vitro antibacterial evaluation, MIC by agar dilution, E. coli ATCC 25922; assay type: cell-based
How it was run: as §1

[9] = test system: P. aeruginosa ATCC 27853; assay: In vitro antibacterial evaluation, MIC by agar dilution, P. aeruginosa ATCC 27853; assay type: cell-based
How it was run: as §1

[10] = test system: X. maltophilia ATCC 13637; assay: In vitro antibacterial evaluation, MIC by agar dilution, X. maltophilia ATCC 13637; assay type: cell-based; details: Stenotrophomonas maltophilia, ATCC13637
Protocol: (§2) The compounds of the invention were evaluated against several β-lactamresistant bacteria strains by determining the minimum inhibitory concentration (MIC, μg/ml) of each compound with respect to each strain. The MIC, the lowest concentration of antibiotic which inhibits growth of the test organism, was determined by the agar dilution method.
(§3) To determine the MIC for bacterial isolates, the test compound was incorporated in a series of two-fold dilutions into liquified Mueller-Hinton agar. Upon solidification, a number of different bacterial strains were spot inoculated with a replicating device onto the agar surface. […] The procedures used in these studies have been standardized by the National Committee for Clinical Laboratory Standards (NCCLS), as per the NCCLS publication entitled METHODS FOR DILUTION ANTIMICROBIAL SUSCEPTIBILITY TESTS (1991), which is incorporated herein by reference.
(§4) Aliquots of antimicrobial agents were prepared in phosphate buffered saline (PBS) at pH 7.2. Tween 20 or DMSO was used as a solubilizing vehicle as needed. Standard methods of vortexing, sonicating and gentle heat were used to facilitate solubilizing the test agent. Typically, the concentration of the stock solution was 10× that of the highest drug concentration tested. A 1.28 mg/mL stock solution was used with a subsequent highest working concentration of 128 μg/mL. Serial two-fold dilutions were done through ≤0.25 μg/mL. Each drug level was tested in duplicate. Two-fold drug dilutions were done in sterile 50 mL tubes with a final drug volume of 5 mL. Upon the addition of 45 mL of molten agar, a 10-fold dilution resulted. Two, 25 mL. plates were then poured into 15×150 mm square Petri plates with grids and allowed to harden.
(§5) A control plate with a reference drug, either cefotaxime, vancomycin or imipenem, was used as the positive growth control. Stock concentrations of reference antibiotics were prepared and frozen at -80° C. Upon preparation, the control plates were sealed and stored in the refrigerator for up to 1 week prior to use; however, imipenem control plates had to be prepared just prior to use. All test plates were used within 24 hours of preparation.
(§6) Satisfactory results were obtained where the inoculum contained about 10^4 colony forming units (cfu) ±0.5 logs. Starting with pure cultures of the test isolates on agar plates, a few isolated colonies were transferred to a tube of nutrient broth and allowed to grow 4-6 hours at 35°-36° C. to reach log-phase growth. Dropwise addition of the broth culture to PBS was done to match a 0.5 McFarland turbidity standard equal to 10^8 cfu/mL. This was further diluted ten-fold in PBS to reach a working inoculum concentration of 10^7 cfu/mL. When 1 μL of the working inoculum was applied to the agar surface a concentration of about 10^4 cfu per spot was obtained.
(§7) Disposable sterile 1 μL loops were used to inoculate test plates, with each isolate in a designated grid on the agar plate. An alternate method of inoculation involved the use of a replica plater, a device with 48 steel pins allowing the simultaneous inoculation of multiple isolates. After the spots had dried, the plates were incubated at 35°-36° C. for 16-20 hours. Endpoints were assessed as the minimum inhibitory concentration (MIC) of antimicrobial agent.

[11] = test system: methicillinsusceptible S. aureus strain ATCC 13709; assay: In vivo antibacterial evaluation, murine model for lethal bacteremic peritonitis; set-up: species or system S. aureus in female Swiss-Webster mice; details: Staphylococcus aureus, ATCC13709, sc, 72 h, two equal SC doses at challenge and 2 hours later, mice, probit, read-out: ED50
How it was run: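 Female Swiss-Webster mice received IP an LD100 bacterial titer in 7% hog gastric mucin, then two equal subcutaneous doses (at challenge and 2 h later) of two-fold increments of drug, range 0.01–512 mg/kg. Survival scored at 72 h; PD50 (total mg/kg) by probit, groups of 10.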

[12] = test system: methicillinsusceptible S. aureus strain ATCC 13709; assay: Challenge strain MIC; assay type: cell-based; details: Staphylococcus aureus, ATCC13709, S. aureus ATCC 13709; read-out: Challenge str MIC
How it was run: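 MIC was found by agar dilution to NCCLS standards: two-fold compound dilutions from 128 μg/mL through ≤0.25 μg/mL in Mueller-Hinton agar, each level in duplicate. Log-phase inocula of about 10^4 cfu per spot were applied. Plates were incubated 16-20 h at 35°-36° C, and the MIC was the lowest concentration inhibiting growth.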

[13] = test system: S. aureus Col (Meth^R)(lac^-); assay: In vitro antibacterial evaluation, MIC by agar dilution, S. aureus Col; assay type: cell-based
Protocol: as §2, §3, §4, §5, §6, §7
The novel agents of this invention are notable for their enhanced activity against S. aureus Col and Enterococci (E. faecium and E. faecalis). […]

[14] = test system: S. aureus 76 (Meth^R)(lac^+); assay: In vitro antibacterial evaluation, MIC by agar dilution, S. aureus 76; assay type: cell-based
How it was run: as §1

[15] = S. aureus ATCC 29213, read-out: MIC
[16] = Staphylococcus aureus, ATCC25923, S. aureus ATCC 25923, read-out: MIC
[17] = Staphylococcus epidermidis, ATCC31432, S. epidermidis ATCC 31432, read-out: MIC
[18] = Staphylococcus haemolyticus, read-out: MIC
[19] = Enterococcus faecium, ATCC35667, read-out: MIC
[20] = Enterococcus faecalis, ATCC29212, read-out: MIC
[21] = Escherichia coli, ATCC25922, read-out: MIC
[22] = Pseudomonas aeruginosa, ATCC27853, read-out: MIC
[23] = Staphylococcus aureus, ATCC25923
[24] = Staphylococcus epidermidis, ATCC31432
[25] = Staphylococcus aureus, read-out: MIC

Row | Compound | MIC [2, 16] [mg/L] | MIC [3, 17] [mg/L] | MIC ([4]; Staphylococcus aureus) [mg/L] | MIC [5, 18] [mg/L] | MIC [6, 19] [mg/L] | MIC [7, 20] [mg/L] | MIC [8, 21] [mg/L] | MIC [9, 22] [mg/L] | MIC [10] [mg/L] | MIC [1] [mg/L] | MIC [14, 25] [mg/L] | also measured
1 | CO/N=C(\C(=O)N[C@@H]1C(=O)N2C(C(=O)O)=C(COC(C)=O)CS[C@H]12)c1csc(N)n1 [Cefotaxime, (7R)-3-Acetoxymethyl-7-[(Z)-2-(aminothiazol-4-yl)-2-(methoxyimino)acetamido]-3-cephem-4-carboxylic acid, reference compound] | < 1 | 2 (≈ 4.39 µM) | 2 (≈ 4.39 µM) | > 32 | > 32 | > 32 | < 1 | 8 to 16 (≈ 17.6 to 35.1 µM) | > 32 | – | – | MIC [1, 15]: 2 mg/L (≈ 4.39 µM); ED50 [11]: 7.47 mg/kg; MIC [12]: 2 mg/L (≈ 4.39 µM)
2 | O=C(Cc1ccccc1)N[C@@H]1C(=O)N2C(C(=O)O)=C(Sc3ccccc3I)CS[C@H]12 [Cmpd 6, (7R)-7-[(Phenylacetyl)amino]-3-(o-iodophenylthio)-3-cephem-4-carboxylic acid] | – | – | < 0.015 | 4 (≈ 7.24 µM) | 0.5 (≈ 0.905 µM) | 0.5 (≈ 0.905 µM) | > 32 | > 32 | > 32 | < 0.015 | 1 (≈ 1.81 µM) | MIC [2, 23]: < 0.015 mg/L; MIC [3, 24]: < 0.015 mg/L; activity against S. aureus Col, S. aureus Col 8A and Enterococci [13]: broad activity against both S. aureus Col and S. aureus Col 8A, as well as Enterococci
3 | O=C(Cc1ccccc1)N[C@@H]1C(=O)N2C(C(=O)O)=C(Sc3ccccc3-c3ccccc3)CS[C@H]12 [Cmpd 9, (7R)-7-((Phenylacetyl)amino]-3-(2-biphenylthio)-3-cephem-4-carboxylic acid] | 0.125 (≈ 0.249 µM) | 0.125 (≈ 0.249 µM) | 0.25 (≈ 0.497 µM) | 0.125 (≈ 0.249 µM) | 2 (≈ 3.98 µM) | 4 (≈ 7.96 µM) | > 32 | > 32 | > 32 | 0.25 (≈ 0.497 µM) | 8 (≈ 15.9 µM) | activity against S. aureus Col, S. aureus Col 8A and Enterococci [13]: broad activity against both S. aureus Col and S. aureus Col 8A, as well as Enterococci
4 | O=C(Cc1ccccc1)N[C@@H]1C(=O)N2C(C(=O)O)=C(Sc3ccc(Br)cc3-c3ccccc3)CS[C@H]12 [Cmpd 14, (7R)-7-[(Phenylacetyl)amino]-3-(4-bromo-2-biphenylthio)-3-cephem-4-carboxylic acid] | 0.06 (≈ 0.103 µM) | 0.06 (≈ 0.103 µM) | 0.25 (≈ 0.43 µM) | 8 (≈ 13.8 µM) | 1 (≈ 1.72 µM) | 2 (≈ 3.44 µM) | > 32 | > 32 | > 32 | 0.25 (≈ 0.43 µM) | 4 (≈ 6.88 µM) | –
5 | O=C(Cc1ccccc1)N[C@@H]1C(=O)N2C(C(=O)O)=C(Sc3ccccc3Cl)CS[C@H]12 [Cmpd 15, (7R)-7-[(Phenylacetyl)amino]-3-(o-chlorophenylthio)-3-cephem-4-carboxylic acid] | 0.03 (≈ 0.0651 µM) | 0.03 (≈ 0.0651 µM) | 0.06 (≈ 0.13 µM) | 16 (≈ 34.7 µM) | 2 (≈ 4.34 µM) | 2 (≈ 4.34 µM) | > 32 | > 32 | > 32 | – | 8 (≈ 17.4 µM) | MIC [1, 15]: 0.06 mg/L (≈ 0.13 µM)
6 | N=C(N)SCc1ccc(SC2=C(C(=O)O)N3C(=O)[C@@H](NC(=O)Cc4ccccc4)[C@H]3SC2)c(I)c1 [Cmpd 58, (7R)-7-[(Phenylacetyl)amino]-3-(4-isothiouroniummethyl-2-iodophenylthio)-3-cephem-4-carboxylic acid] | – | – | < 0.25 | 4 (≈ 6.24 µM) | 0.5 (≈ 0.781 µM) | 1 (≈ 1.56 µM) | 32 (≈ 50 µM) | > 32 | – | – | 4 (≈ 6.24 µM) | MIC [2, 23]: < 0.25 mg/L; MIC [3, 24]: < 0.25 mg/L; MIC ([13]; Staphylococcus aureus): < 0.25 mg/L
7 | (7R)-7-[(Phenylacetyl)amino]-3-(2,3-dihydro-2,2-dimethylbenzofuran-7-yl)-3-cephem-4-carboxylic acid [Cmpd 55] | – | – | – | – | – | – | – | – | – | – | – | MIC ([2]; S. aureus ATCC 25923): < 0.25 mg/L; MIC ([3]; S. epidermidis ATCC 31432): < 0.25 mg/L; MIC ([13]; S. aureus Col (Meth^R)(lac^-), high-level PBP2a producer): 4 mg/L; MIC [14]: 16 mg/L; MIC ([4]; S. aureus Col8A (Meth^S)(lac^-), lacks PBP2a): < 0.25 mg/L; MIC [5]: 16 mg/L; MIC [6]: 8 mg/L; MIC [7]: 16 mg/L; MIC [8]: > 32 mg/L; MIC [9]: > 32 mg/L
